From publication PMC1262763, “Evolutionary selection across the nuclear hormone receptor superfamily with a focus on the NR1I subfamily (vitamin D, pregnane X, and constitutive androstane receptors)” (Nuclear Receptor, 2005)
Counter-ions that a name gives are not always drawn.

Assays:
[1] = target: T1, zebrafish PXR (Danio rerio, UniProt A5WYG8); assay: GAL4-LBD luciferase reporter transactivation, HepG2-NTCP cells; type: cell-based; conditions: concentration-response curve; normalized to […]α-androstan-3α-ol
T1 construct: gene nr1i2; LBD only, fused to GAL4 (tk-UAS-Luc reporter), transfected in HepG2-NTCP cells
T1 sequence (A5WYG8 144-430 limits assumed): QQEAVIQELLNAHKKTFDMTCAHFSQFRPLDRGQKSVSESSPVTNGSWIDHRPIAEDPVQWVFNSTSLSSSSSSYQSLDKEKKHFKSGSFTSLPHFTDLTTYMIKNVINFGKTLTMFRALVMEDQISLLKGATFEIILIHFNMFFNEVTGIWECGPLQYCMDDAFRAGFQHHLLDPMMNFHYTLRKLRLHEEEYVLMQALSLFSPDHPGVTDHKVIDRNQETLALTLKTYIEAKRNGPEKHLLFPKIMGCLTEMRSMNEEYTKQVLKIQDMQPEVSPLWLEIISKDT

[2] = target: T2, Xenopus laevis BXRα (Xenopus laevis, UniProt Q91839); assay: as above; type: cell-based; conditions: concentration-response curve; normalized to […] n-butyl-p-aminobenzoate
T2 construct: gene nr1i2.L; LBD only, fused to GAL4 (tk-UAS-Luc reporter), transfected in HepG2-NTCP cells
T2 sequence (Q91839 141-386 limits assumed): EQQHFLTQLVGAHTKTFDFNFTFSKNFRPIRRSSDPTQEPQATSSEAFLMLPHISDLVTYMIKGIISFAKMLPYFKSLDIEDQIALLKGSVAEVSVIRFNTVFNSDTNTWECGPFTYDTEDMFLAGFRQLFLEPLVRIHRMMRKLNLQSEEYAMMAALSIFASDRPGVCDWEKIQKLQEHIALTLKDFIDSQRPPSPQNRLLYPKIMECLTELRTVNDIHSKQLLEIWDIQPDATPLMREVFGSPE

[3] = target: T3, human PXR (Homo sapiens, UniProt O75469); assay: luciferase reporter transactivation, HepG2-NTCP cells; type: cell-based; conditions: concentration-response curve, normalized to […] rifampicin
T3 construct: gene NR1I2; full-length receptor (DBD and LBD), transfected in HepG2-NTCP cells with CYP3A4-PXRE-Luc reporter
T3 sequence (O75469 1-434): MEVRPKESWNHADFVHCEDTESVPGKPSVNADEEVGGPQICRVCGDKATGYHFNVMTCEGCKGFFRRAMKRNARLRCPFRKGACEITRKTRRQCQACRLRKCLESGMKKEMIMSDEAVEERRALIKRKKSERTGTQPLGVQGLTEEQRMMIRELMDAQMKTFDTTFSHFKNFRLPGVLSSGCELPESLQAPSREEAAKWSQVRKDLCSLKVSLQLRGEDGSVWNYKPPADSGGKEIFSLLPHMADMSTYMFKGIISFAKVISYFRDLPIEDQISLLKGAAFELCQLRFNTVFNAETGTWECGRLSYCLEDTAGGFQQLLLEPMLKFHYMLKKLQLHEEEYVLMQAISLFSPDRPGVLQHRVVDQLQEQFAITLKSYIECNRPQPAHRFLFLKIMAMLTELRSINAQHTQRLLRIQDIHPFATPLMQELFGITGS

[4] = target: human VDR (Homo sapiens, UniProt P11473); conditions: maximal activator […] calcitriol
Sequence of human VDR (P11473 whole entry): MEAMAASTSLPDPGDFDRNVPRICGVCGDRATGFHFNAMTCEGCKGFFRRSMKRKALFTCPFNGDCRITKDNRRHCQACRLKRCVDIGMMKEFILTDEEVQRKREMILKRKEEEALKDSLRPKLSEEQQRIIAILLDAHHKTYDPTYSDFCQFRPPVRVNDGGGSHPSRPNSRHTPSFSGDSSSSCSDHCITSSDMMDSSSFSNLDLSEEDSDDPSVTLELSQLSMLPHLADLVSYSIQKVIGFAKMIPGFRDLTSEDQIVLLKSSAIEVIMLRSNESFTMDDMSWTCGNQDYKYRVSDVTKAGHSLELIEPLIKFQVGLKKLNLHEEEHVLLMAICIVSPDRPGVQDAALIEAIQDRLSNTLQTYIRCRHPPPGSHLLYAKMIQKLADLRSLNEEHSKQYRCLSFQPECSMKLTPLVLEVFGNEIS

Structure (SMILES)	GAL4-LBD luciferase reporter transactivation, HepG2-NTCP cells [1]	GAL4-LBD luciferase reporter transactivation, HepG2-NTCP cells [2]	luciferase reporter transactivation, HepG2-NTCP cells [3]	luciferase reporter transactivation, HepG2-NTCP cells ([3]; OATP co-transfected)	efficacy relative to calcitriol [4] [%]
CCCOC(=O)c1ccc(O)cc1 [n-propyl-p-hydroxybenzoate]	zebrafish PXR is activated by pregnenolone, scymnol sulfate, and the benzoate analog	n-propyl-p-hydroxybenzoate, which activates BXRα and BXRβ robustly	the early bile salts petromyzonol sulfate and scymnol sulfate, 3-ketolithocholic acid, and the benzoate analog		
CC(=O)[C@H]1CC[C@H]2[C@@H]3CC=C4C[C@@H](O)CC[C@]4(C)[C@H]3CC[C@]12C [pregnenolone]	zebrafish PXR is activated by pregnenolone, scymnol sulfate, and the benzoate analog		Human PXR is activated by micromolar concentrations of the steroid pregenonolone		
C[C@H](CCCOS(=O)(=O)O)[C@H]1CC[C@H]2[C@@H]3[C@H](O)C[C@H]4C[C@H](O)CC[C@]4(C)[C@H]3C[C@H](O)[C@]12C [petromyzonol sulfate]				the early bile salts petromyzonol sulfate and scymnol sulfate, 3-ketolithocholic acid, and the benzoate analog	
C[C@H](CCC(=O)O)[C@H]1CC[C@H]2[C@@H]3CC[C@@H]4CC(=O)CC[C@]4(C)[C@H]3CC[C@]12C [3-ketolithocholic acid]			the early bile salts petromyzonol sulfate and scymnol sulfate, 3-ketolithocholic acid, and the benzoate analog		15
